1 compound from ChEMBL document CHEMBL5046290, “Design, Synthesis, and Preclinical Profiling of GSK3739936 (BMS-986180), an Allosteric Inhibitor of HIV-1 Integrase with Broad-Spectrum Activity toward 124/125 Polymorphs” (J Med Chem, 2022) can be followed below.

The term IC50 denotes the concentration needed to halve the response being measured. In general, Tmax refers to the time from dosing to the highest level.

The nature of data set [1]: Toxicity in rat assessed as distended stomach at 500 mg/kg/day. Conditions: in vivo. The class given is organism-based.
The target of a further data set is Cytochrome P450 2C9 (Homo sapiens, UniProt P11712). As to the kind of experiment: Inhibition of human CYP2C9. The class given is ADME.
Chain of Cytochrome P450 2C9 (P11712 whole entry): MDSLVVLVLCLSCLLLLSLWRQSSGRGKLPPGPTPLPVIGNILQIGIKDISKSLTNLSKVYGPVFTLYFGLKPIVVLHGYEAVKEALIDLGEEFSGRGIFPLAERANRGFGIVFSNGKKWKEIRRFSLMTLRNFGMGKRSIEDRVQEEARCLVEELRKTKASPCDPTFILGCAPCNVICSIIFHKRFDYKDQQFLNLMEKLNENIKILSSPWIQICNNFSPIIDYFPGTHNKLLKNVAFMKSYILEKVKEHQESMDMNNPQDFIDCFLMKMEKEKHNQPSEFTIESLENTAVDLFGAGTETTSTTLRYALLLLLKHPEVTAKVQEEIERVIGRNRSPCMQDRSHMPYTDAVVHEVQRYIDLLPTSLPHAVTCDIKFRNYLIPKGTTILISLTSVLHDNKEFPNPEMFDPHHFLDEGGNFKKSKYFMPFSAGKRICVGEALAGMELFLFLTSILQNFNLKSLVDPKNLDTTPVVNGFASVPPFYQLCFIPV
Data set [2] can be described thus: Tmax in cynomolgus monkey at 2 mg/kg, po by LC-MS/MS analysis. The class given is ADME, organism-based, Macaca fascicularis. Conditions: in vivo.

Where only a bound is given, the exact number is not on record here.

As for `Cc1nc(C)c([C@H](OC(C)(C)C)C(=O)O)c(N2CCC(C)(C)CC2)c1-c1ccc(OCCc2ccc(F)cc2)cc1`, in data set [1], the Activity entry was “Toxic”. Further, on Cytochrome P450 2C9, the IC50 is at least 24.3 µM. Further, in data set [2], the Tmax was 2 h.
